According to patent US20220378764A1, “[…] OF A GENE ENCODING A CYTOCHROME P450 PROTEIN BY TREATING A HUMAN SUBJECT WITH A NITROXIDE” (priority 2021, published 2022):

Test system: fifteen genes associated with the cytochrome p450 family
Test: Microarray gene expression in tissue of Tempol-fed mice, overall statement
Type: in vivo
Settings: 5 mg/g of food from 14 to 31 months after birth, cardiac tissue, vs control mice
Protocol: Mice receiving the same food without the addition of Tempol were used as a negative control. At the age of 31 months, the experimental animals were sacrificed and the hearts were surgically removed. The expression of a broad spectrum of genes in the cardiac tissue was assessed using chip-based microarray technology. Such chips are well known in the art and are widely used to assess gene expression.

CC1(C)CC(O)CC(C)(C)N1[O] [Tempol, 4-hydroxy-2,2,6,6-tetramethylpiperidine-1-oxyl]
Expression of fifteen genes associated with the cytochrome p450 family: statistically significant increase in expression
